Experimental data reported in patent US20250263395A1, “COMPOUNDS THAT MEDIATE PROTEIN DEGRADATION AND METHODS OF USE THEREOF” (Monte Rosa Therapeutics AG, priority 2022, published 2025).

Assays:
[1] = target: CDK2 (Homo sapiens (Human), UniProt P24941); assay: CDK2 NanoBiT assay (HiBiT-tagged CDK2 degradation); type: cell-based; conditions: C-terminal HiBiT tag on CDK2, LgBiT, 24 hours; for Dmax: HEK293, HEK293 clonal line
Protocol: Example 145. NanoBiT Assay
A HEK293 clonal line with a CRISPR knock-in C-terminal HiBiT tag on CDK2 and stably expressing LgBiT protein was obtained from Promega (Madison, WI). Cells were plated at 5000 cells per well using Multiflo (BioTek) in 384-well white solid bottom plates (Corning, 3570BC) in 25 ul volume in DMEM media (DMEM, high glucose, HEPES, no phenol red (ThermoFisher Scientific, 21063029)) containing 10% FBS (Corning, 35-075-CV), 1% Peniciliin/Streptomycin ((ThermoFisher Scientific, 15140-122), and 1% Endurazine (Nano-Glo Endurazine Live Cell Substrate (Promega, N2571)). Cells were incubated for 16 hours at 37 C, 5% CO2. 75 nL of a compound at 30 μM were dosed into the plate using an Echo® 650 liquid handler (Labcyte). Cells were incubated at 37° C., 5% CO2 for 24 hours and then signal was read on a Pherastar FSX using “LUM plus” optic module.
Analysis was performed in Scinamic (Scinamic, Cambridge, MA). Luminescence response (R) was calculated by the formula: response=100*(S−N)/(P−N) where S is the signal of the well, N and P the mean negative and positive control values respectively of the same plate. The luminescence response was then fitted in Scinamic using a 3-parameter agonist logistic fit (hillslope=1, EC50>0, top/bottom unconstrained).

[2] = target: CRBN-DDB1 (Homo sapiens (Human), UniProt Q96SW2); assay: CRBN HTRF assay (Cy5-Thalidomide probe displacement); type: binding; conditions: CRBN-DDB1 2.5 nM, Cy5-Thalidomide 100 nM, 30 min; Ki from geometric mean IC50 by Cheng-Prusoff
Chain of CRBN-DDB1 (Q96SW2 whole entry): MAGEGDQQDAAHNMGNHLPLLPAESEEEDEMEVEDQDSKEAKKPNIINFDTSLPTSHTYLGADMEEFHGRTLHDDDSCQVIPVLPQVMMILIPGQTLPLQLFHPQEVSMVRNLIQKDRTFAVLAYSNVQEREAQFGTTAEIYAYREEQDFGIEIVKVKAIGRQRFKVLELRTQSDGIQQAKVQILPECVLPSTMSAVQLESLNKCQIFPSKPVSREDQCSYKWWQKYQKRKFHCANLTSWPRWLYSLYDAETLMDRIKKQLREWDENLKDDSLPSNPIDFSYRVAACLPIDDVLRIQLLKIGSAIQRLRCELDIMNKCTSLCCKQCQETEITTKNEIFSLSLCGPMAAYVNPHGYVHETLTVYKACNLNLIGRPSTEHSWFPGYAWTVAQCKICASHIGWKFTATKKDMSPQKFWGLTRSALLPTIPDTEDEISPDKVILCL
Chain of CRBN-DDB1 (Q16531 whole entry partner): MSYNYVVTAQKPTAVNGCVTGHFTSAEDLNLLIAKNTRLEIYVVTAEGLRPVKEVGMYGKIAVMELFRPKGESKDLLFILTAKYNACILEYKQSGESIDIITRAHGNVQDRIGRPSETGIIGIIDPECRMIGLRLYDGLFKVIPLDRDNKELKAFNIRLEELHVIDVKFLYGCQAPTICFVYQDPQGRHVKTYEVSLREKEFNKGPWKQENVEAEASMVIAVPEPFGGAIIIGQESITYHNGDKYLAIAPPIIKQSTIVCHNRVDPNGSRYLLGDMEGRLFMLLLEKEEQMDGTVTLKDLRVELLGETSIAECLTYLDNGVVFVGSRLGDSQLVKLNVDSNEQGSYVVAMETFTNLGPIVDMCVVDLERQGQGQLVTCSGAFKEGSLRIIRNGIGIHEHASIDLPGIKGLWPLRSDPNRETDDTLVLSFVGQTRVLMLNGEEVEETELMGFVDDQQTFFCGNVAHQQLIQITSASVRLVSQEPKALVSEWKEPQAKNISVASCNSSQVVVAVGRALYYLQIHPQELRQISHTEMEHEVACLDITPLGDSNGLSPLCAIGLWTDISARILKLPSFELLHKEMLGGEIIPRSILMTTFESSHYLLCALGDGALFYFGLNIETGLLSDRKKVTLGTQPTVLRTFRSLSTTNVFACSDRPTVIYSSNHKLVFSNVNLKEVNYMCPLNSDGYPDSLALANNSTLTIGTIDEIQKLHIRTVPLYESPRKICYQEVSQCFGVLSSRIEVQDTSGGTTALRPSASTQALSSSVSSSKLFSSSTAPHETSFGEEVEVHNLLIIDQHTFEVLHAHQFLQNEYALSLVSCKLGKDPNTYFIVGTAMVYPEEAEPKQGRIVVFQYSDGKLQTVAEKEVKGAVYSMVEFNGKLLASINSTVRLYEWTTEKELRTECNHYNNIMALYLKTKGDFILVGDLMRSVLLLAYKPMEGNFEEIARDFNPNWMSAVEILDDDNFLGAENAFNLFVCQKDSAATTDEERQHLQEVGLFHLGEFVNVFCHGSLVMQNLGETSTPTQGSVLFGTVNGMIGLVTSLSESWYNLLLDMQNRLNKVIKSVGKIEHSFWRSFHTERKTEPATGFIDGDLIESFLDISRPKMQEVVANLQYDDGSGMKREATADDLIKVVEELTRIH
Protocol: Compound activity was monitored in a Homogenous Time-Resolved Fluorescence (HTRF) assay using 1-[5-({2-[2-(2-{[2-(2,6-dioxopiperidin-3-yl)-1,3-dioxo-2,3-dihydro-1H-isoindol-4-yl]oxy}acetamido)ethoxy]ethyl}carbamoyl)pentyl]-3,3-dimethyl-2-[(1E,3E)-5-[(2E)-1,3,3-trimethyl-5-sulfo-2,3-dihydro-1H-indol-2-ylidene]penta-1,3-dien-1-yl]-3H-indol-1-ium-5-sulfonate as a fluorescent probe. Biochemical assays were conducted in Greiner white 384 well HiBase plates (Cat. No 784075-25) in 10 μL total volume. A one pot detection solution of CRBN-DDB1 (2.5 nM), Anti-His Terbium Cryptate Gold (1×, PerkinElmer Cat. #: 61HI2TLB), and Cy5-Thalidomide (100 nM, Tenova Cat.: T52461) was prepared in 20 mM HEPES, 20 mM NaCl, 0.2 mM TCEP, 0.2 mM EDTA, and 0.005% Tween20 was dispensed to each assay plate. Compounds were stored in dry, ambient temperatures at 10 mM. A 10-point, 1:3 dilution series was prepared from 10 mM stock concentrations in Echo-compatible LDV plates. 10 nL of each compound dilution series was dispensed into assays wells using an Echo 650 (Labcyte inc. USA). 10 nL of 10 mM Lenalidomide was transferred into the active-control wells for the assay and 10 nL of DMSO was transferred into the neutral-control wells. The assay was then allowed to incubate for 30 min at ambient temperature after transferring compound. Plate measurements were taken on a Pherastar FSX (BMG Labtech, Germany) using the HTRF Red filter (Ex. 337 nm, em1: 620 nm, em2: 665 nm) (Flashes: 50, Integration time: 60-400 us, Z-height: 10 mm, Ratio-multiplier: 10,000). The HTRF signal was then subsequently normalized to the neutral and active controls. Analysis and IC50 values were derived using KNIME analytics (KNIME Zurich) transformation and fitting within Collaborative Drug Discovery (Collaborative Drug Discovery USA). Ki was derived from the geometric mean of the IC50 values using the Cheng-Prustoff transformation.

## O=C1CCC(c2c(F)cc(N3CC(NC(=O)OC4CN(C(=O)c5ccccc5)C4)C3)cc2F)C(=O)N1 (stereo not drawn) [Compound 24, 1-benzoylazetidin-3-yl (1-(4-(2,6-dioxopiperidin-3-yl)-3,5-difluorophenyl)azetidin-3-yl)carbamate]
[1]
  Dmax: 10 to 50%
[2]
  Ki: ≤ 100 nM

## Cc1ccc(N(C)C(=O)C23CC(OC(=O)NC4CN(c5cc(F)c(C6CCC(=O)NC6=O)c(F)c5)C4)(C2)C3)cc1 (stereo not drawn) [Compound 133, 3-(methyl (p-tolyl)carbamoyl)bicyclo[1.1.1]pentan-1-yl (1-(4-(2,6-dioxopiperidin-3-yl)-3,5-difluorophenyl)azetidin-3-yl)carbamate]
[1]
  Dmax: 50 to 80%
[2]
  Ki: ≤ 100 nM

## O=C1CCC(c2c(F)cc(N3CC(Nc4nnc(-c5ccc(OC(F)(F)F)cc5)o4)C3)cc2F)C(=O)N1 (stereo not drawn) [Compound 103, 3-(2,6-difluoro-4-(3-((5-(4-(trifluoromethoxy)phenyl)-1,3,4-oxadiazol-2-yl)amino)azetidin-1-yl)phenyl)piperidine-2,6-dione]
[1]
  Dmax: > 80%
[2]
  Ki: ≤ 100 nM

## O=C1CCC(c2c(F)cc(N3CC(Nc4nnc(-c5ccc(Cl)cc5)o4)C3)cc2F)C(=O)N1 (stereo not drawn) [Compound 93, 3-(4-(3-((5-(4-chlorophenyl)-1,3,4-oxadiazol-2-yl)amino)azetidin-1-yl)-2,6-difluorophenyl)piperidine-2,6-dione]
[1]
  Dmax: > 80%
[2]
  Ki: 100 to 1000 nM

## O=C1CCC(c2c(F)cc(N3CC(Nc4nnc(-c5cccnc5)o4)C3)cc2F)C(=O)N1 (stereo not drawn) [Compound 128, 3-(2,6-difluoro-4-(3-((5-(pyridin-3-yl)-1,3,4-oxadiazol-2-yl)amino)azetidin-1-yl)phenyl)piperidine-2,6-dione]
[1]
  Dmax: 50 to 80%
[2]
  Ki: ≤ 100 nM

## COc1ccc(N(C)C(=O)N2CC(OC(=O)NC3CN(c4cc(F)c(C5CCC(=O)NC5=O)c(F)c4)C3)C2)cc1 (stereo not drawn) [Compound 13, 1-((4-methoxyphenyl)(methyl)carbamoyl)azetidin-3-yl(1-(4-(2,6-dioxopiperidin-3-yl)-3,5-difluorophenyl)azetidin-3-yl)carbamate]
[1]
  Dmax: 50 to 80%
[2]
  Ki: ≤ 100 nM

## Cc1cc(N2CC(NC(=O)OC3CN(C(=O)N(C)C4CC4)C3)C2)cc(Cl)c1C1CCC(=O)NC1=O (stereo not drawn) [Compound 87, 1-(cyclopropyl(methyl)carbamoyl)azetidin-3-yl (1-(3-chloro-4-(2,6-dioxopiperidin-3-yl)-5-methylphenyl)azetidin-3-yl)carbamate]
[1]
  Dmax: 50 to 80%
[2]
  Ki: 100 to 1000 nM

## O=C1CCC(c2c(F)cc(N3CC(Nc4ncn(C5CC6(CCC6)C5)n4)C3)cc2F)C(=O)N1 (stereo not drawn) [Compound 105, 3-(2,6-difluoro-4-(3-((1-(spiro[3.3]heptan-2-yl)-1H-1,2,4-triazol-3-yl)amino)azetidin-1-yl)phenyl)piperidine-2,6-dione]
[1]
  Dmax: 50 to 80%
[2]
  Ki: 100 to 1000 nM

## COc1c(N2CC(NC(=O)OCC3CC4(CCC4)C3)C2)ccc(C2CCC(=O)NC2=O)c1F (stereo not drawn) [Compound 44, spiro[3.3]heptan-2-ylmethyl (1-(4-(2,6-dioxopiperidin-3-yl)-3-fluoro-2-methoxyphenyl)azetidin-3-yl)carbamate]
[1]
  Dmax: > 80%
[2]
  Ki: 100 to 1000 nM

## CN(C(=O)N1CC(OC(=O)NC2(C)CN(c3cc(F)c(C4CCC(=O)NC4=O)c(F)c3)C2)C1)C1CC1 (stereo not drawn) [Compound 12, 1-(cyclopropyl(methyl)carbamoyl)azetidin-3-yl (1-(4-(2,6-dioxopiperidin-3-yl)-3,5-difluorophenyl)-3-methylazetidin-3-yl)carbamate]
[1]
  Dmax: 50 to 80%
[2]
  Ki: ≤ 100 nM

## CN(C(=O)C12CC(OC(=O)NC3CN(c4cc(F)c(C5CCC(=O)NC5=O)c(F)c4)C3)(C1)C2)c1cccc(Cl)c1 (stereo not drawn) [Compound 131, 3-((3-chlorophenyl)(methyl)carbamoyl)bicyclo[1.1.1]pentan-1-yl (1-(4-(2,6-dioxopiperidin-3-yl)-3,5-difluorophenyl)azetidin-3-yl)carbamate]
[1]
  Dmax: 50 to 80%
[2]
  Ki: ≤ 100 nM

## O=C1CCC(c2c(F)cc(N3CC(NC(=O)OC4CN(C(=O)N5CCCCC5)C4)C3)cc2F)C(=O)N1 (stereo not drawn) [Compound 36, 1-(piperidine-1-carbonyl)azetidin-3-yl (1-(4-(2,6-dioxopiperidin-3-yl)-3,5-difluorophenyl)azetidin-3-yl)carbamate]
[1]
  Dmax: 50 to 80%
[2]
  Ki: ≤ 100 nM

## CC(C)(C)[Si](C)(C)O[C@H]1C[C@@H](COC(=O)NC2CN(c3cc(F)c(C4CCC(=O)NC4=O)c(F)c3)C2)C1 (stereo partly drawn) [Compound 49, ((1s, 3s)-3-((tert-butyldimethylsilyl)oxy)cyclobutyl)methyl (1-(4-(2,6-dioxopiperidin-3-yl)-3,5-difluorophenyl)azetidin-3-yl)carbamate]
[1]
  Dmax: > 80%
[2]
  Ki: 100 to 1000 nM

## Cc1ccc(N(C)C(=O)C23CC(OC(=O)NC4CN(c5cc(F)c(C6CCC(=O)NC6=O)c(F)c5)C4)(C2)C3)c(C)c1 (stereo not drawn) [Compound 117, 3-((2,4-dimethylphenyl)(methyl)carbamoyl)bicyclo[1.1.1]pentan-1-yl (1-(4-(2,6-dioxopiperidin-3-yl)-3,5-difluorophenyl)azetidin-3-yl)carbamate]
[1]
  Dmax: 10 to 50%
[2]
  Ki: ≤ 100 nM

## O=C1CCC(c2c(F)cc(N3CC(NC(=O)OC45CC(C(=O)c6ccccc6)(C4)C5)C3)cc2F)C(=O)N1 (stereo not drawn) [Compound 4]
[1]; HEK293 clonal line
  CDK2 NanoBiT Dmax (%): D (D represents Dmax value of >80%)
[2]
  Ki: ≤ 100 nM

## Cc1cc(N2CC(NC(=O)OC3CN(C(=O)N(C)C4CC4)C3)C2)cc(F)c1C1CCC(=O)NC1=O (stereo not drawn) [Compound 15, 1-(cyclopropyl(methyl)carbamoyl)azetidin-3-yl (1-(4-(2,6-dioxopiperidin-3-yl)-3-fluoro-5-methylphenyl)azetidin-3-yl)carbamate]
[1]
  Dmax: 50 to 80%
[2]
  Ki: ≤ 100 nM

## COc1c(N2CC(C)(Nc3nnc(C4CC5(CCC5)C4)o3)C2)ccc(C2CCC(=O)NC2=O)c1F (stereo not drawn) [Compound 121, 3-(2-fluoro-3-methoxy-4-(3-methyl-3-((5-(spiro[3.3]heptan-2-yl)-1,3,4-oxadiazol-2-yl)amino)azetidin-1-yl)phenyl)piperidine-2,6-dione]
[1]
  Dmax: 10 to 50%
[2]
  Ki: ≤ 100 nM

## Cc1cc(Cl)ccc1N(C)C(=O)C12CC(OC(=O)NC3CN(c4cc(F)c(C5CCC(=O)NC5=O)c(F)c4)C3)(C1)C2 (stereo not drawn) [Compound 112, 3-((4-chloro-2-methylphenyl)(methyl)carbamoyl)bicyclo[1.1.1]pentan-1-yl (1-(4-(2,6-dioxopiperidin-3-yl)-3,5-difluorophenyl)azetidin-3-yl)carbamate]
[1]
  Dmax: 10 to 50%
[2]
  Ki: ≤ 100 nM

## Cc1cccnc1N1CC(OC(=O)NC2CN(c3cc(F)c(C4CCC(=O)NC4=O)c(F)c3)C2)C1 (stereo not drawn) [Compound 29, 1-(3-methylpyridin-2-yl)azetidin-3-yl (1-(4-(2,6-dioxopiperidin-3-yl)-3,5-difluorophenyl)azetidin-3-yl)carbamate]
[1]
  Dmax: 50 to 80%
[2]
  Ki: ≤ 100 nM

## Cc1ccccc1-c1nnc(NC2CN(c3cc(F)c(C4CCC(=O)NC4=O)c(F)c3)C2)o1 (stereo not drawn) [Compound 96, 3-(2,6-difluoro-4-(3-((5-(o-tolyl)-1,3,4-oxadiazol-2-yl)amino)azetidin-1-yl)phenyl)piperidine-2,6-dione]
[1]
  Dmax: > 80%
[2]
  Ki: ≤ 100 nM

## O=C1CCC(c2c(F)cc(N3C[C@H](NC(=O)OCC4CC5(CCC5)C4)CC3=O)cc2F)C(=O)N1 (stereo partly drawn) [Compound 58, spiro[3.3]heptan-2-ylmethyl ((3R)-1-(4-(2,6-dioxopiperidin-3-yl)-3,5-difluorophenyl)-5-oxopyrrolidin-3-yl)carbamate]
[1]
  Dmax: 50 to 80%
[2]
  Ki: ≤ 100 nM
